In patent US9487551B2, “Small molecule compounds that control mammal-pathogenic nematodes” (California Institute of Technology, priority 2011, dated 2016):
“Also recorded” adds a separate entry of the source. Marks after values point to notes of the source that are not given here.

What was measured:
[1] = system: Several of the tested nematode species; assay: Retention assay; format: in vivo; conditions: 1 nM, 1 μM and 1 mM tested
Experimental: OP50 E. coli was grown on a standard 5 cm agar plate (made with standard Nematode Growth Medium). The bacterial lawn was 16 mm in diameter and was grown overnight at 20° C. before being used in trials. Two 4 mm spots (0.6 μL) were placed on opposite sides of the bacterial lawn (using a transparent template to guide spot placement), and several minutes elapsed for the liquid to settle in before placing nematodes down on the assay. Recording began immediately upon worm placement. 0.6 μL of the control was placed on one side of the lawn, and 0.6 μL of the experimental cue was placed on the other side of the lawn, changing the location of the cue throughout trials between left/right and top/bottom to avoid bias.
Nematodes were isolated by gender at the L4 stage the day before being used in trials as developed adults. Worms were evenly divided and placed at two points equidistant from the foci of the scoring region. Trials were recorded for 20 minutes, and frames were collected for analysis at 1 frame per second. Results were averaged from at least three different trials. For every nematode species in this study, a different total number of worms (using water in both scoring regions) was tested to determine the minimum number of worms necessary for consistent unbiased results over a 20 minute trial. The total number of worms used in the multiple species assays depended on that species' optimal parameters. 10 worms were used for P. redivivus males and females, 20 worms were used for C. elegans males and O. dolichuridae males, and 14 worms were used for S. glaseri males. The Automated Software was used to compare worm occupancy in each scoring region over time, and the Chemotaxis Index (Bargmann et al., Cell 74:515-27 (1993), which is hereby incorporated by reference in its entirety) was adapted to score preference or avoidance to each ascaroside.
A video camera attached to the microscope produced a digital video stream, which was then analyzed. The ratio of the time the average worm spent in each region of interest was calculated for every trial. For ease of implementation, all worms in a single experiment were assumed to be roughly the same size. Thus worm pixels were counted instead of whole worms, allowing fractions of a worm in the region of interest to be taken into account. It also eliminated the need for a shape-based worm identification algorithm, and allowed each frame to be analyzed independently. A band-pass filter was applied to each frame to eliminate the effect of uneven lighting and also accentuate the worms against the background. The worm was then identified after thresholding the filtered image. Throughout each experiment, the locations and sizes of the regions of interest were known. Through the filtering described above, it is known which pixels are occupied by worms and which ones are not. Thus, the ratio of worm-pixels to all pixels inside the region of interest can be calculated to produce the worm-occupancy ratio. This calculation was done for every frame, giving a plot output of worm-occupancy ratio vs. time for each region.

[2] = system: C. elegans males; assay: Attraction assay (long-range, point source); format: in vivo; conditions: 10 cm plate
Experimental: 10 cm standard chemotaxis plates were prepared (Bargmann et al., Cell 74:515-27 (1993), which is hereby incorporated by reference in its entirety) and stored at 4° C. until the day before use. Standard 1 cm-diameter copper pipes were sectioned into 1 cm-tall segments to use for the holding chambers. The females/hermaphrodites were isolated overnight, washed 3 times in M9 buffer, and then allowed to wander on a plate pre-conditioned with 50 uL of 1000× treptomycin for 2 hours to kill any bacteria that might produce a false positive attractant. The nematodes were then washed 3 times, and the supernatant from the last wash was placed in a copper chamber, as the control, 1 cm from the border of the 10 cm plate. The nematodes were suspended in M9 within the copper chamber, 1 cm from the border opposite the control chamber. After 6 hours, they were subsequently removed and replaced with 3 μL of 1M sodium azide. 100 C. elegans adult males were isolated overnight, washed several times in ddH2O, and placed at the center of the agar plate. After several hours, males paralyzed within 2 cm of each region were scored. The Chemotaxis Index (Bargmann et al., Cell 74:515-27 (1993), which is hereby incorporated by reference in its entirety) was then used to score male chemotaxis to either point source.

[3] = system: C. elegans; assay: Ascaroside function (Table 12); format: in vivo, Caenorhabditis elegans; parameters: key to Attract Females/Herm. / Promote Dauer Formation / Attract Males: A very strong result of affecting nematode behavior is designated in the table as “strong.”; conditions: listed = has this function
Experimental: (§1) Various ascarosides and ascaroside blends were administered to various nematodes described below (Table 12). […] A very strong result of affecting nematode behavior is designated in the table as “strong.”

[4] = system: Panagrellus redivivus; assay: Ascaroside function (Table 12); format: in vivo; conditions: listed = has this function
Experimental: as §1

[5] = system: S. glaseri; assay: Ascaroside function (Table 12); format: in vivo; conditions: listed = has this function
Experimental: as §1

[6] = system: S. feltiae; assay: Ascaroside function (Table 12); format: in vivo, Steinernema feltiae; conditions: listed = has this function
Experimental: as §1

[7] = system: C. elegans; conditions: cited from earlier work
[8] = system: C. elegans; conditions: in vivo; cited from earlier work
[9] = system: Meloidogyne javanica, M. floridensis, M. incognita, M. hapla; assay: Ascaroside function (Table 12); format: in vivo, Meloidogyne spp.; conditions: for predicted function in Meloidogyne species: alone, in concert, and/or in concert with ascr#9 or other ascarosides; for Dispersal (of dauer larvae, infectious juveniles) / Repel Females/Herm.: entries with asterisk (predicted)
Experimental: (§2) Ascarosides ascr#10, ascr#16, ascr#18, ascr#20, and ascr#22 were detected in certain species of Meloidogyne plant parasitic nematodes (FIG. 83) and identified using high-resolution mass spectrometry (FIGS. 84-88).
as §1

[10] = system: Heterorhabditis bacteriophora, H. zealandica, H. floridensis; assay: Ascaroside function (Table 12); format: in vivo, Heterorhabditis spp.; conditions: for predicted function in Heterorhabditis: alone, in concert, and/or in concert with ascr#9 or other ascarosides; for Dispersal (of dauer larvae, infectious juveniles) / Repel Females/Herm.: entries with asterisk (predicted)
Experimental: as §2, §1

[11] = system: C. elegans; assay: Spot attraction assay; format: in vivo
Experimental: The spot attraction assays were conducted according to a previously reported method (Pungaliya et al., PNAS 106:7708-13 (2009); Srinivasan et al., Nature 454:1115-18 (2008), which are hereby incorporated by reference in their entirety). For both C. elegans hermaphrodites and males, 50-60 worms were harvested daily at the fourth larval stage (L4) and stored segregatedly by sex at 20° C. overnight, to be used as young adults the following day. For the competition experiments, two conditions were used: 120 nM ascr#3 and 10 nM icas#3 (Condition 1), or 12 μM ascr#3 and 1 μM icas#3 (Condition 2) in water containing 10% ethanol. Aliquots were stored at −20° C. in 20 μL tubes. 10% ethanol in water was used as control.
Attraction assays with hbas#3 were conducted as previously reported (Srinivasan et al., Nature 454:1115-18 (2008); Pungaliya et al., Proc. Natl. Acad. Sci. U.S.A. 106:7708-13 (2009), which are hereby incorporated by reference in their entirety). For the attraction assays, 50-60 hermaphrodite worms were harvested daily at the early fourth larval stage (L4) and stored at 20° C. overnight to be used as young adults the following day. Hbas#3 was dissolved in water containing 10% ethanol. Aliquots were stored at −20° C. in 20 μL tubes. 10% ethanol in water was used as control.

[12] = system: C. elegans; assay: Quadrant chemotaxis assay; format: in vivo; conditions: FIGS. 48A-B; wild-type hermaphrodites
Experimental: Chemotaxis to both non-indole and indole ascarosides was assessed on 10 cm four-quadrant petri plates (Wicks et al., Dev. Biol. 221:295-307 (2000), which is hereby incorporated by reference in its entirety). Each quadrant was separated from adjacent ones by plastic spacers (FIG. 1B). Pairs of opposite quadrants were filled with nematode growth medium (NGM) agar containing either indole ascarosides or non-indole ascarosides at different concentrations. Animals were washed gently in a S-basal buffer, placed in the center of a four-quadrant plate with ascarosides in alternating quadrants, and scored after 15 minutes and 30 minutes. A chemotaxis index was calculated as: (the number of animals on ascaroside quadrants minus the number of animals on buffer quadrants)/(total number of animals).
Chemotaxis to hbas#3 was assessed on 10 cm four-quadrant petri plates (Wicks et al., Dev. Biol. 221:295-307 (2000), which is hereby incorporated by reference in its entirety). Each quadrant was separated from adjacent ones by plastic spacers. Pairs of opposite quadrants were filled with nematode growth medium (NGM) agar containing different concentrations of hbas#3. Animals were washed gently in an S-basal buffer and placed in the center of a four-quadrant plate with ascarosides in alternating quadrants, and scored after 15 minutes and 30 minutes. A chemotaxis index was calculated as: (the number of animals on ascaroside quadrants minus the number of animals on buffer quadrants)/(total number of animals).

Structure (SMILES): CC1O[C@@H](O[C@H](C)CCCC/C=C/C(=O)O)[C@@H](O)C[C@H]1O (some centres unmarked) [ascr#3]
- preference for ascaroside-conditioned areas [1]: preferred areas conditioned
- amount as low as which elicited C. elegans male attraction [2]: 5 femtomol
- male attraction from a distance [2]: chemotax towards
- Attract Males [3]: ascr#3
- Promote Dauer Formation [3]: ascr#3 ([strong])
- Repel Females/Herm. [3]: ascr#3
- Attract Males [4]: ascr#3
- Attract Males [5]: ascr#3
- Dispersal (of dauer larvae, infectious juveniles) [6]: ascr#3
- most active amount for attraction ([7]; from 1 μM concentration): ~1 pmol
- response of social and solitary hermaphrodites ([7]; high dauer-inducing concentrations): strongly deter both social and solitary hermaphrodites
- response of males and hermaphrodites ([7]; in vivo): strongly attracts males but repels hermaphrodites
- dauer-inducing activity [8]: individually promote dauer entry

Structure (SMILES): CC(=O)CC[C@@H](C)O[C@@H]1O[C@@H](C)[C@H](O)C[C@H]1O[C@@H]1O[C@H](CO)[C@@H](O)[C@H](O)[C@H]1O [ascr#4]
- Promote Dauer Formation [3]: ascr#4

Structure (SMILES): C[C@H](CC/C=C/C(=O)O)O[C@@H]1O[C@@H](C)[C@H](O)C[C@H]1O [ascr#7]
- preference for ascaroside-conditioned areas [1]: preferred areas conditioned
- Attract Males [3]: ascr#7
- Attract Males [4]: ascr#7
- Attract Males [5]: ascr#7

Structure (SMILES): CC1OC(O[C@H](C)CCCCCCCC(=O)O)C(O)CC1O (some centres unmarked) [ascr#16]
- predicted function in Meloidogyne species [9]: act as dispersants and repellants
- Dispersal (of dauer larvae, infectious juveniles) [9]: ascr#16*
- Repel Females/Herm. [9]: ascr#16*

Structure (SMILES): CC1OC(O[C@H](C)CCCCCCCCC(=O)O)C(O)CC1O (some centres unmarked) [ascr#18]
- predicted function in Meloidogyne species [9]: act as dispersants and repellants
- Dispersal (of dauer larvae, infectious juveniles) [9]: ascr#18*
- Repel Females/Herm. [9]: ascr#18*
- predicted function in Heterorhabditis [10]: act as dispersants and repellants
- Dispersal (of dauer larvae, infectious juveniles) [10]: ascr#18*
- Repel Females/Herm. [10]: ascr#18*

Structure (SMILES): CC1OC(O[C@H](C)CCCCCCCCCC(=O)O)C(O)CC1O (some centres unmarked) [ascr#20]
- predicted function in Meloidogyne species [9]: act as dispersants and repellants
- Dispersal (of dauer larvae, infectious juveniles) [9]: ascr#20*
- Repel Females/Herm. [9]: ascr#20*

Structure (SMILES): C[C@H](CCCCCCCCCCC(=O)O)O[C@@H]1O[C@@H](C)[C@H](O)C[C@H]1O [ascr#22]
- predicted function in Meloidogyne species [9]: act as dispersants and repellants
- Dispersal (of dauer larvae, infectious juveniles) [9]: ascr#22*
- Repel Females/Herm. [9]: ascr#22*
- predicted function in Heterorhabditis [10]: act as dispersants and repellants
- Dispersal (of dauer larvae, infectious juveniles) [10]: ascr#22*
- Repel Females/Herm. [10]: ascr#22*

Structure (SMILES): C[C@H](CCCC/C=C/C(=O)O)O[C@@H]1O[C@@H](C)[C@H](OC(=O)c2ccc(O)cc2)C[C@H]1O [hbas#3, (8R)-(3′R-Hydroxy-5′R-(4-hydroxybenzoyloxy)-6′S-methyl-(2H)-tetrahydropyran-2′-yloxy)non-(2E)-enoic acid]
- attraction of wild-type (N2) hermaphrodites ([11]; dose dependent): attracted
- concentration as low as which strongly attracted C. elegans [12]: 10 femtomolar
- Attract Males [3]: ([strong])

Structure (SMILES): C[C@H](CCCCC(=O)O)O[C@@H]1O[C@@H](C)[C@H](OC(=O)c2c[nH]c3ccccc23)C[C@H]1O [icas#1]
- attraction in spot attraction assay ([11]; 1 pmol (high concentrations), N2 hermaphrodites and him-5 males): attractive to both C. elegans sexes; also recorded: attracted both males and hermaphrodites
- Attract Females/Herm. [3]: icas#1 ([strong])
- Attract Males [3]: icas#1 ([strong])

Structure (SMILES): C[C@@H]1O[C@@H](OCCCCC(=O)O)[C@H](O)C[C@H]1O [oscr#9, 5-(3′R,5′R-Dihydroxy-6′S-methyl-(2H)-tetrahydropyran-2′-yloxy)pentanoic acid]
- Attract Males [4]: oscr#9

Structure (SMILES): CC1O[C@@H](OCCCCCCCCC(=O)O)C(O)C[C@H]1O (stereo partly drawn) [oscr#10, 9-(3′R,5′R-Dihydroxy-6′S-methyl-(2H)-tetrahydropyran-2′-yloxy)nonanoic acid]
- Repel Males [4]: oscr#10
